Data set [1] is classed as physicochemical. To be noted: for chemical stability of the component in buffers / degradation of the component at pH 2 and 10: 1% w/w purified loline extract, 0.2M buffers; for chemical stability of the component in buffers: except pH 2 and 10; for degradation of the component at pH 2 and 10: starting at 24 h. As for the experimental part: 1% w/w solutions of purified loline extract at various pH and 0.2M buffers were used in this investigation. The solutions were maintained at 54° C. (±1° C.) and 70° C. (±1° C.) and pH remained at the target pH (±0.2 pH units). Samples were taken periodically over a 2-3 week period and analysed by GC-FID to determine NFL strength.

The format of data set [2] is physicochemical.

Data on three compounds can be found in US12606569B2, “Alkaloid-containing compositions and uses thereof” (priority 2017, dated 2026).

The structures appear in SMILES notation. Where two headings read alike, the source gives them in different places.

`CC(=O)NC1C2CN3CCC(O2)C13` (stereo not shown) [NANL, N-acetylnorloline]: in data set [1], the “chemical stability of the component in buffers” value is “chemically stable”; the “degradation of the component at pH 2 and 10” value is given as “small degradation”.
For `CC(=O)N(C)C1C2CN3CCC(O2)C13` (stereo not shown) [NAL, N-acetylloline], in that order: “chemically stable” and “small degradation”.
Consider `CN(C=O)C1C2CN3CCC(O2)[C@H]13` (stereo partly shown) [NFL, N-formylloline], for which the “stability on increasing or decreasing pH from pH 4” value in data set [1] (70° C.) is reported as “significant decrease in stability”. Besides, in data set [1] (70° C., pH 2.6), the “time after which the stability of NFL plateaus” value is “approximately 100 hours”. The “stability (degradation of NFL to loline)” value in data set [1] (70° C., pH 4, acetic acid derived buffer, over 170 hours) is recorded as “greatest stability”; in data set [1] (70° C., pH 4, citric acid buffer), “lower stability”. In addition, the overall degradation rates result in data set [2] (50° C. compared with 70° C.) was “reduced”. For the same compound, the “conversion of NFL to loline, citric acid based system versus acetic acid derived buffer” value in data set [2] (both 50° C. and 70° C.) is reported as “higher degradation”.
